Legend:
Conditions in all cases: in vivo
[1] = system: Rattus norvegicus; assay: AUC (0 to 6 hrs) as total radioactivity in Sprague-Dawley rat plasma at 100 mg/kg, po administered as single oral dose by HPLC analysis; format: ADME, organism-based
[2] = system: Cynomolgus monkey; assay: AUC (0 to 12 hrs) as total radioactivity in cynomolgus monkey plasma at 10 mg/kg, po administered as single oral dose by HPLC analysis; format: ADME, organism-based, Macaca fascicularis
[3] = system: Homo sapiens; assay: AUC (0 to 12 hrs) as total radioactivity in human plasma at 800 mg, po administered as single oral dose by HPLC analysis; format: ADME, organism-based
[4] = Drug recovery in Sprague-Dawley rat urine at 100 mg/kg, po administered as single dose via gavage measured during 0 to 168 hrs by liquid scintillation counting; format: ADME, organism-based
[5] = Drug recovery in Sprague-Dawley rat feces at 100 mg/kg, po administered as single dose via gavage measured during 0 to 168 hrs by liquid scintillation counting; format: ADME, organism-based
[6] = system: Rattus norvegicus; assay: Total drug recovery in Sprague-Dawley rat at 100 mg/kg, po administered as single dose via gavage measured during 0 to 168 hrs by liquid scintillation counting; format: ADME, organism-based
[7] = Drug recovery in bile duct-cannulated rat urine at 100 mg/kg, po administered as single dose via gavage measured during 0 to 48 hrs by liquid scintillation counting; format: ADME, organism-based
[8] = Drug recovery in bile duct-cannulated rat bile at 100 mg/kg, po administered as single dose via gavage measured during 0 to 48 hrs by liquid scintillation counting; format: ADME, organism-based
[9] = Drug recovery in bile duct-cannulated rat feces at 100 mg/kg, po administered as single dose via gavage measured during 0 to 48 hrs by liquid scintillation counting; format: ADME, organism-based
[10] = system: Rattus norvegicus; assay: Total drug recovery in bile duct-cannulated rat at 100 mg/kg, po administered as single dose via gavage measured during 0 to 48 hrs by liquid scintillation counting; format: ADME, organism-based
[11] = Drug recovery in cynomolgus monkey urine at 10 mg/kg, po administered as single dose via gavage measured during 0 to 168 hrs by liquid scintillation counting; format: ADME, organism-based, Macaca fascicularis
[12] = Drug recovery in cynomolgus monkey feces at 10 mg/kg, po administered as single dose via gavage measured during 0 to 168 hrs by liquid scintillation counting; format: ADME, organism-based, Macaca fascicularis
[13] = system: Cynomolgus monkey; assay: Total drug recovery in cynomolgus monkey at 10 mg/kg, po administered as single dose via gavage measured during 0 to 168 hrs by liquid scintillation counting; format: ADME, organism-based, Macaca fascicularis
[14] = Drug recovery in bile duct-cannulated cynomolgus monkey urine at 10 mg/kg, po administered as single dose via gavage measured during 0 to 72 hrs by liquid scintillation counting; format: ADME, organism-based, Macaca fascicularis
[15] = system: Cynomolgus monkey; assay: Cmax as total radioactivity in cynomolgus monkey plasma treated at 10 mg/kg, po administered as single dose via gavage by liquid scintillation counting; format: ADME, organism-based, Macaca fascicularis
[16] = system: Cynomolgus monkey; assay: Tmax of total radioactivity in cynomolgus monkey plasma treated at 10 mg/kg, po administered as single dose via gavage by liquid scintillation counting; format: ADME, organism-based, Macaca fascicularis
[17] = system: Cynomolgus monkey; assay: AUC (0 to t) as total radioactivity in cynomolgus monkey plasma treated at 10 mg/kg, po administered as single dose via gavage by liquid scintillation counting; format: ADME, organism-based, Macaca fascicularis
[18] = system: Homo sapiens; assay: Cmax as total radioactivity in human plasma treated at 800 mg, po administered as single dose […] by mass spectrometry; format: ADME, organism-based
[19] = system: Homo sapiens; assay: Tmax of total radioactivity in human plasma treated at 800 mg, po administered as single dose […] by mass spectrometry; format: ADME, organism-based
[20] = system: Homo sapiens; assay: AUC (0 to t) as total radioactivity in human plasma treated at 800 mg, po administered as single dose […] by mass spectrometry; format: ADME, organism-based
[21] = Drug recovery in bile duct-cannulated cynomolgus monkey bile at 10 mg/kg, po administered as single dose via gavage measured during 0 to 72 hrs by liquid scintillation counting; format: ADME, organism-based, Macaca fascicularis
[22] = Drug recovery in bile duct-cannulated cynomolgus monkey feces at 10 mg/kg, po administered as single dose via gavage measured during 0 to 72 hrs by liquid scintillation counting; format: ADME, organism-based, Macaca fascicularis
[23] = system: Cynomolgus monkey; assay: Total drug recovery in bile duct-cannulated cynomolgus monkey at 10 mg/kg, po administered as single dose via gavage measured during 0 to 72 hrs by liquid scintillation counting; format: ADME, organism-based, Macaca fascicularis
[24] = Drug recovery in human urine at 800 mg, po administered as single dose via gavage measured during 0 to 288 hrs by liquid scintillation counting; format: ADME, organism-based
[25] = Drug recovery in human feces at 800 mg, po administered as single dose via gavage measured during 0 to 288 hrs by liquid scintillation counting; format: ADME, organism-based
[26] = system: Homo sapiens; assay: Total drug recovery in human at 800 mg, po administered as single dose […] measured during 0 to 288 hrs by liquid scintillation counting; format: ADME, organism-based
[27] = system: Rattus norvegicus; assay: Cmax as total radioactivity in Sprague-Dawley rat plasma treated at 100 mg/kg, po administered as single dose via gavage by liquid scintillation counting; format: ADME, organism-based
[28] = system: Rattus norvegicus; assay: Tmax of total radioactivity in Sprague-Dawley rat plasma treated at 100 mg/kg, po administered as single dose via gavage by liquid scintillation counting; format: ADME, organism-based
[29] = system: Rattus norvegicus; assay: AUC (0 to t) as total radioactivity in Sprague-Dawley rat plasma treated at 100 mg/kg, po administered as single dose via gavage by liquid scintillation counting; format: ADME, organism-based

Structure (SMILES): Cc1cc2c(F)c(Oc3n[14cH]nn4cc(OC[C@@H](C)OC(=O)[C@H](C)N)c(C)c34)ccc2[nH]1
- AUC [1]: 139766 ugequiv/l.hr
- AUC [2]: 69315 ugequiv/l.hr
- AUC [3]: 65627.4 ugequiv/l.hr
- Radiolabel recovery [4]: 9.46%
- Radiolabel recovery [5]: 83.58%
- Radiolabel recovery [6]: 93.68%
- Radiolabel recovery [7]: 7.33%
- Radiolabel recovery [8]: 78.35%
- Radiolabel recovery [9]: 3.31%
- Radiolabel recovery [10]: 88.99%
- Radiolabel recovery [11]: 10.3%
- Radiolabel recovery [12]: 76.31%
- Radiolabel recovery [13]: 89.79%
- Radiolabel recovery [14]: 3.56%
- Cmax [15]: 9.7 µg/mL
- Tmax [16]: 2 h
- AUCt [17]: 90.3 µg·h/mL
- Cmax [18]: 9.4 µg/mL
- Tmax [19]: 1 h
- AUCt [20]: 203.8 µg·h/mL
- Radiolabel recovery [21]: 47.66%
- Radiolabel recovery [22]: 26.41%
- Radiolabel recovery [23]: 81.43%
- Radiolabel recovery [24]: 12.18%
- Radiolabel recovery [25]: 81.54%
- Radiolabel recovery [26]: 93.72%
- Cmax [27]: 35.2 µg/mL
- Tmax [28]: 2 h
- AUCt [29]: 250 µg·h/mL

From ChEMBL document CHEMBL3526109 (Drug Metab Dispos, 2011)
